Laboratory results as given in US20130158098A1, “Alkenyl Substituted Cycloaliphatic Compounds as Chemical Inducers of Proximity” (priority 2010, published 2013).

Molecular target: T1, GFP-PYLcs and ABIcs localization fusion proteins (Arabidopsis thaliana, UniProt Q8VZS8)
T1 construct: A fragment of PYL1 (aa 33-209) is fused to full length GFP or SOS; HA (from the reverse primer); expressed in transfected cells; host or cells: HEK 293 / HEK 293T
T1 sequence (Q8VZS8 33-209): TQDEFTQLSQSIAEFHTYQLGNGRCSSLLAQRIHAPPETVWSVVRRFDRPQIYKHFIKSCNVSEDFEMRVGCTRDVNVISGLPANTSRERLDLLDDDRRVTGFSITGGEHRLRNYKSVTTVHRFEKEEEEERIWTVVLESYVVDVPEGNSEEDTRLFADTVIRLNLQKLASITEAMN
T1 sequence (P49597 126-434 partner): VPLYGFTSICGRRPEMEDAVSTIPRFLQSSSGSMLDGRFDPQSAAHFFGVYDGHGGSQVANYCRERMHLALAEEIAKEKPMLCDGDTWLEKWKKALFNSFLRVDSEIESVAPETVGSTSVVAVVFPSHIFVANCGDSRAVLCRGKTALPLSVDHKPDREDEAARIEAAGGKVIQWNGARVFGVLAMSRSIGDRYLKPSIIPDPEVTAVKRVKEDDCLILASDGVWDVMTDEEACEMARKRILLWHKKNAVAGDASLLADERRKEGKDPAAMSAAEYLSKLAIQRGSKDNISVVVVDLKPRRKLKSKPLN
Experiment: ABA-induced subcellular relocalization of PYLcs fusion proteins
Type: cell-based
Details: NLS-ABIcs present; HEK 293T cells
Protocol: A fragment of ABI1 (aa 126-423) is either fused to full length mouse Brg, full length mouse Numb, full length human CD4 or myristoylation signal. A fragment of PYL1 (aa 33-209) is fused to full length GFP or SOS. Full length SOS is fused either to myristoylation signal or three copies of FKBP12.
Cells grown on glass coverslips were washed in phosphate-buffered saline (PBS) and fixed with 4% paraformaldehyde (PFA, prepared in PBS) at room temperature for 20 min. After three 5-min washes in PBS, the cells were permeabilized with 5% normal goat serum and 0.1% Triton X-100 in PBS at room temperature for 30 min and incubated with primary antibodies (FLAG antibody M2, Agilent, cat. #200472-21) at 4° C. overnight in the same buffer. The slides were subsequently washed three times with PBS (5 min each wash) and then incubated with Alexa fluorophore 594-conjugated secondary antibodies (Molecular Probes) for 1 hour at room temperature in the dark. Slides were washed three times in PBS for 5 min. Finally, the slides were mounted in Vectashield containing 4′,6-diamidino-2-phenylindole (DAPI; H-1500, Vector Laboratories) and imaged (63×) with a Leica DM5000B microscope.
The area and integrated fluorescence intensity of the whole cell and the nucleus were measured with Fiji (an open-source image processing package based on ImageJ) for images from the cytoplasmic or nuclear localization experiments. The area and the integrated fluorescence intensity of the cytoplasm were calculated by subtracting the value of the nucleus from the whole cell. The mean fluorescence intensity of nucleus or cytoplasm was calculated by dividing the integrated fluorescence intensity with the area of each subcellular compartment. The ratio between nuclear or cytoplasmic distribution was calculated by comparing the corresponding mean fluorescence intensity. Twenty cells were measured in each experiment.
The activities of proteins are often regulated by their subcellular localization. In another variation of domain reconstitution, the ability of ABA-induced proximity to control the localization of a chosen protein was tested. Fusions of ABIcs to specific subcellular localization domains were constructed and ABA was used to dimerize these ABIcs localization fusion proteins to green fluorescent protein (GFP)-fused PYLcs. The relocation of GFP-PYLcs to four subcellular locations was induced by fusing ABIcs to (i) Numb to serve as a cytoplasmic localization partner (Dho, S. E. et al. (1999) Characterization of four mammalian Numb protein isoforms: Identification of cytoplasmic and membrane-associated variants of the phosphotyrosine binding domain. J. Biol. Chem. 274, 33097-33104), (ii) to a nuclear localization sequence (NLS) or to Brg1 (Brm/SWI2-related gene 1) to serve as nuclear localization partners (Khavari, P. A. et al. (1993) BRG1 contains a conserved domain of the SWI2/SNF2 family necessary for normal mitotic growth and transcription. Nature 366, 170-174), (iii) to CD4 (cluster of differentiation 4) to serve as a plasma membrane localization partner (Sattentau, Q. J. et al. (1988) The CD4 antigen: Physiological ligand and HIV receptor. Cell 52, 631-633), or (iv) to a myristoylation (myr) sequence to serve as a plasma membrane and an intracellular membrane localization partner (Holsinger, L. J. et al. (1995) Signal transduction in T lymphocytes using a conditional allele of Sos. Proc. Natl. Acad. Sci. U.S.A. 92, 9810-9814)).

Question: `CC1=CC(=O)CC(C)(C)C1(O)/C=C/C(C)=C/C(=O)O` (stereo not shown) [ABA, abscisic acid] was tested. Which “redistribution of cytoplasmic Numb-GFP-PYLcs into the nucleus” value did it give?
Answer: triggered the redistribution
